Paper PMC6002460, “Pharmacological evaluation of new constituents of “Spice”: synthetic cannabinoids based on indole, indazole, benzimidazole and carbazole scaffolds” (Forensic Toxicology, 2018)
“Also recorded” adds a separate entry of the source. Read-outs that look alike come from different tables or passages of the source.

How the values were obtained:
[1] = molecular target: T1, human CB1 receptor (Homo sapiens, UniProt P21554); assay: cAMP accumulation assay, CHO cells stably expressing CB1; assay type: cell-based; settings: for EC50: forskolin 10 µM, read-out: EC50 CB1 receptor activation, cAMP accumulation
T1 construct: expressed in transfected cells; host or cells: CHO cells (membrane preparations)
Method: (§1) cAMP accumulation assays were performed also as previously described. Briefly, CHO cells stably expressing the respective human CB receptor subtype CB1 or CB2 were seeded overnight. […] After incubation for 15 min the buffer was removed, and the cells were lyzed. The amount of cAMP was determined in a radioligand binding assay by incubating 50 µL of the cell lysate with 3 nM [^3H]cAMP in the presence of protein preparations from bovine adrenal glands (cAMP binding protein). Bound and unbound radioligand were separated by rapid filtration through GF/B filters, and radioactivity was determined by liquid scintillation counting. To test for antagonistic activity, test compounds were added to Hank’s buffered salt solution (HBSS) containing 10% dimethyl sulfoxide (DMSO), 10 min after the application of Ro-20-1724, and the mixture was incubated for 20 min at 37 °C.
(§2) As a next step, we investigated the compounds in cAMP accumulation assays, to obtain information on their functionality (Fig. 3). CB receptors are Gi protein-coupled and thus reduce the levels of cAMP in the cells upon activation.

[2] = molecular target: T2, human GPR18 (Homo sapiens, UniProt Q14330); assay: β-Arrestin PathHunter assay, recombinant CHO cells expressing GPR18; assay type: cell-based; settings: for Human GPR18 % activation / Human GPR18 % inhibition: value in parentheses
T2 construct: host or cells: CHO cells
T2 sequence (Q14330 1-331): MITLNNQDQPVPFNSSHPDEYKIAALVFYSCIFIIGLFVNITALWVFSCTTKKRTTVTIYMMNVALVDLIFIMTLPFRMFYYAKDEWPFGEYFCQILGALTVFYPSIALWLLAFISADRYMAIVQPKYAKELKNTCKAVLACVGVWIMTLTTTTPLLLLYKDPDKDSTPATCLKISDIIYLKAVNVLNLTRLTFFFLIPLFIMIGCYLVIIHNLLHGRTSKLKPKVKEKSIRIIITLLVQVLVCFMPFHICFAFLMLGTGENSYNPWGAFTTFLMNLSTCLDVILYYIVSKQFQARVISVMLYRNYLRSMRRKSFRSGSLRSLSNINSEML
Method: (§3) β-Arrestin assays were performed in recombinant CHO cells expressing either the human GPR18 or the human GPR55 as described before using the β-galactosidase enzyme fragment complementation technology (β-arrestin PathHunter™ assay; DiscoverX, Fremont, CA, USA).
(§4) The orphan receptors GPR18 and GPR55 can interact with certain natural and synthetic cannabinoids. […] Therefore, we investigated the new series of indole, indazole, benzimidazole and carbazole-derived structures in β-arrestin assays at GPR18 and GPR55 (Table 2). […] For the lipophilic substitutions, the following rank order of potency was observed: ethyl > methyl > chloro > fluoro. Therefore, it can be concluded that a lipophilic substitution in position 4 of the naphthyl residue was a requirement for GPR55 inhibition.

[3] = molecular target: T1, human CB1 receptor; assay: biochemical; assay type: binding; settings: [3H]CP55,940 0.1 nM, CHO cell membranes; read-out: Ki ± SEM Human CB1
[4] = molecular target: T3, human CB2 receptor (Homo sapiens, UniProt P34972); assay: biochemical; assay type: binding; settings: [3H]CP55,940 0.1 nM, CHO cell membranes; read-out: Ki ± SEM Human CB2
T3 construct: expressed in transfected cells; host or cells: CHO cells (membrane preparations)

[5] = molecular target: CB1 receptor; set-up: method as in Buchler et al. [37]; settings: versus 0.5 nM [3H]CP55,940; ref Buchler et al. [37]; cited from earlier work
[6] = molecular target: T3, human CB2 receptor; assay: cAMP accumulation assay, CHO cells stably expressing CB2; assay type: cell-based; settings: for CB2 receptor activation in cAMP accumulation assay (in words): compound at 10 µM, normalized to CP55,940 (1 µM)
Method: as §1, §2

[7] = molecular target: T4, human GPR55 (Homo sapiens, UniProt Q9Y2T6); assay: β-Arrestin PathHunter assay, recombinant CHO cells expressing GPR55; assay type: cell-based; settings: for Human GPR55 % activation / Human GPR55 % inhibition: value in parentheses; for Human GPR55 % inhibition: antagonist mode versus LPI 1 µM
T4 construct: host or cells: CHO cells
Method: as §3, §4

[8] = molecular target: CB2 receptor; settings: membrane potential assay; ref Longworth et al. [51]; cited from earlier work
[9] = molecular target: CB2 receptor; set-up: method as in Bowden et al. [43]; settings: HTRF cAMP accumulation; ref Bowden et al. [43]; cited from earlier work
[10] = molecular target: CB1 receptor; settings: membrane potential assay; ref Longworth et al. [51]; cited from earlier work
[11] = system: CB1 receptor; settings: cited from earlier work
[12] = molecular target: CB2 receptor; settings: cited from earlier work
[13] = agonist mode, read-out: Human GPR18 EC50
[14] = agonist mode, read-out: Human GPR55 EC50
[15] = antagonist mode versus lysophosphatidylinositol (LPI, 1 µM), read-out: Human GPR55 IC50

T4 sequence (Q9Y2T6 whole entry): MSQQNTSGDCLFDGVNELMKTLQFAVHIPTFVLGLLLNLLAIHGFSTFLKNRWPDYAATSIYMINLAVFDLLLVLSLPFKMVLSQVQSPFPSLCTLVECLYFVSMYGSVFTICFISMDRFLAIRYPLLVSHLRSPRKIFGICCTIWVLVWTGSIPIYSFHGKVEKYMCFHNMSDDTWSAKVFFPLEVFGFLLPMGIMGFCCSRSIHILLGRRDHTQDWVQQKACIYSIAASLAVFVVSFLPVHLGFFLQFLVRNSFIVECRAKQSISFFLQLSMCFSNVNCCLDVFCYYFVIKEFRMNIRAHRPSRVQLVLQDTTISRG
T3 sequence (P34972 whole entry): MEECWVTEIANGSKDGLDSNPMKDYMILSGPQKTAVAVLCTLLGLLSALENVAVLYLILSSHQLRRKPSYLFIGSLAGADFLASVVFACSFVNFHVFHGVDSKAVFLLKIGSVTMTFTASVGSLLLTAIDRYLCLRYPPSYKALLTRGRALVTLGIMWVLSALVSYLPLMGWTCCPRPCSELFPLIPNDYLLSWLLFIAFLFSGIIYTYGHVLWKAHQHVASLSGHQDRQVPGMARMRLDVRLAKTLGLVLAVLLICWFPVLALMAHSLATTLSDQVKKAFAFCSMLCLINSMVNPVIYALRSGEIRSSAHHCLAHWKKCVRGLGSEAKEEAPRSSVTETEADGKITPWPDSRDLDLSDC
T1 sequence (P21554 whole entry): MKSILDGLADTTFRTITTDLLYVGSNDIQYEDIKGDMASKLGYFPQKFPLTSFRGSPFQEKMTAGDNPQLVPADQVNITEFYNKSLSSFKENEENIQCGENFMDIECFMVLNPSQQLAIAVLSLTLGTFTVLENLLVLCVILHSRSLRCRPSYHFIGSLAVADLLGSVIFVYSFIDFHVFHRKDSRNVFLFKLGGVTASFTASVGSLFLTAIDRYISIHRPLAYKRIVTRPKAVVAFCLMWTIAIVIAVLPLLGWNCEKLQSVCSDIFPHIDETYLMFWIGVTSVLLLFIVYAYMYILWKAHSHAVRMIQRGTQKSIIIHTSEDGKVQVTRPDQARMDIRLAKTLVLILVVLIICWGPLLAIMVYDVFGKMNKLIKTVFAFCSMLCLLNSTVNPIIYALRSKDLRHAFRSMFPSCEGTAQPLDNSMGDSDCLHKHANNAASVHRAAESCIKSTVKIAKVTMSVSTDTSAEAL

Row | Compound | EC50 [2] [nM] | IC50 [2] [nM] | Human GPR18 % activation ([2]; agonist mode) [%] | Human GPR18 % inhibition ([2]; antagonist mode) [%] | Ki [3] [nM] | Ki [4] [nM] | EC50 [7] [nM] | IC50 [7] [nM] | Human GPR55 % activation ([7]; agonist mode) [%] | Human GPR55 % inhibition [7] [%] | other results
1 | NC(=O)[C@H](Cc1ccccc1)NC(=O)c1nn(Cc2ccc(F)cc2)c2ccccc12 [compound 29, APP-FUBINACA] | > 10000 | > 10000 | 4 | 21 | 56.3 ± 19.8 | 58.1 ± 17.3 | > 10000 | > 10000 | 26 |  | CB1 receptor activation in cAMP accumulation assay (in words) ([1]; compound at 10 µM, normalized to CP55,940 (1 µM)): partial activation; Ki [5]: 47.6 nM; CB2 receptor activation in cAMP accumulation assay (in words) [6]: full agonists
2 | NC(=O)[C@H](Cc1ccccc1)NC(=O)c1nn(CC2CCCCC2)c2ccccc12 [compound 30] | > 10000 | ~10000 | 5 | 57 | 9.81 ± 4.56 | 4.39 ± 0.59 | > 10000 | > 10000 | 11 | 9 | Ki [5]: 47.5 nM
3 | CCCCCn1cc(C(=O)NC(C)(C)c2ccccc2)c2ccccc21 [compound 31, Cumyl-PICA] | > 10000 | > 10000 | 19 |  | 3.27 ± 0.32 | 24 ± 8.8 | > 10000 | > 10000 | 11 | 3 | EC50 [8]: 58.2 nM; EC50 [9]: 13 nM; EC50 [10]: 4.2 nM
4 | O=C(c1ccc2c(c1)c1ccccc1n2CCCCCF)c1cccc2ccccc12 [compound 40, EG-2201] |  |  | 3 | 7 | 22.4 ± 12.8 | 4.36 ± 2.91 |  |  |  | 3 | Emax ([1]; CHO, read-out: efficacy at CB1 compared to maximum response of CP55,940, cAMP accumulation): 94%; functional behaviour at CB1 receptor (in words) ([1]; cAMP accumulation): agonistic behavior; EC50 [1]: 15.6 nM; EC50 [2, 13]: > 10000 nM; IC50 ([2]; antagonist mode, read-out: Human GPR18 IC50): > 10000 nM; Emax ([6]; CHO, read-out: efficacy at CB2 compared to maximum response of CP55,940, cAMP accumulation): 77%; functional behaviour at CB2 receptor (in words) ([6]; cAMP accumulation): agonistic behavior; EC50 ([6]; forskolin 10 µM, read-out: EC50 CB2 receptor activation, cAMP accumulation): 5.65 nM; EC50 [7, 14]: > 10000 nM; IC50 [7, 15]: > 10000 nM
5 | COC(=O)C(NC(=O)c1ccc2c(c1)c1ccccc1n2CC1CCCCC1)C(C)(C)C (centres unmarked) [compound 41, MDMB-CHMCZCA] |  |  |  |  | 5.75 ± 1.65 | 6.67 ± 1.4 |  |  |  | 25 | functional behaviour at CB1 receptor (in words) ([1]; cAMP accumulation): full efficacy; also recorded: agonist; EC50 [1]: 120 nM; EC50 [2, 13]: > 10000 nM; IC50 ([2]; extrapolated value, full curve could not be determined due to limited solubility, read-out: Human GPR18 IC50 (extrapolated)): 9660 ± 1200 nM; functional behaviour at CB2 receptor (in words) ([6]; cAMP accumulation): completely lacked CB2 receptor activation; also recorded: antagonist; CB2 receptor activation in cAMP accumulation assay (in words) [6]: failed to evoke an agonistic response; IC50 ([6]; read-out: IC50 inhibition of CB2 receptor activation, cAMP accumulation): 807 ± 137 nM; EC50 [7, 14]: > 10000 nM; IC50 [7, 15]: > 10000 nM
6 | COc1ccc(C(=O)c2c(C)n(CCN3CCOCC3)c3cc(I)ccc23)cc1 [compound 43, AM-630] |  |  |  |  |  |  |  |  |  |  | function at CB1 (in words) [11]: partial agonist; Ki [12]: 31.2 ± 12.4 nM; function at CB2 (in words) [12]: antagonist
7 | Cc1ccc(Cn2nc(C(=O)N[C@@H]3C(C)(C)[C@@H]4CC[C@@]3(C)C4)cc2-c2ccc(Cl)c(C)c2)cc1 [compound 44, SR-144,528] |  |  |  |  |  |  |  |  |  |  | Ki [11]: 437 ± 33 nM; function at CB2 (in words) [12]: antagonist
8 | CC1=CC[C@@H]2[C@@H](C1)c1c(O)cc(C(C)(C)CCCCCCBr)cc1OC2(C)C [compound 45, AM11542] |  |  |  |  |  |  |  |  |  |  | Ki ([11]; co-crystallized agonist): 0.11 nM
